# Assay results as given in ChEMBL document CHEMBL5338801, “Carbohydrate Strengthens the Immunotherapeutic Effect of Small-Molecule PD-L1 Inhibitors” (J Med Chem, 2023).
# Calls of active or inactive are those of the source. No cut-off for these calls is given here.
# Assays:
# [1] = Half life in CD-1 mouse at 5 mg/kg, iv measured upto 24 hrs by UPLC analysis; type: ADME, organism-based; settings: in vivo
# B16-F10 [2] = test: Antitumor activity against mouse B16-F10 cells implanted in C57BL/6 mouse assessed as tumor growth inhibition at 100 mg/kg, po qd for 6 days and measured once a day for 7 days relative to control; type: functional; settings: B16-F10, 168 h, time 7 day, read-out: TGI
# CT26 [3] = test: Antitumor activity against mouse CT26 cells xenografted Balb/c mouse assessed as increase CD3+ CD8+ T cell count at 25 mg/kg, ip qd administered for 10 days measured every 2 days for 12 days (reference value: 5.77 +/- 0.32%); type: functional; settings: time 12 day
# CT26 [4] = test: Antitumor activity against mouse CT26 cells implanted Balb/c mouse assessed as increase CD4+ cell count at 25 mg/kg, ip qd administered for 10 days measured every 2 days for 12 days (reference value: 13.74 +/- 0.51%); type: functional; settings: time 12 day
# CT26 [5] = test: Downregulation of immediate early response 3-interacting protein 1 in Balb/c mouse tumor implanted with mouse CT26 cells tumor by LC/MS analysis; type: functional, cell-based
# [6] = Upregulation of IFN-gamma secretion in human CD4+ve Th cells cocultured with DC cells incubated for 120 hrs by ELISA; type: functional
# B16-F10 [7] = test: Antitumor activity against mouse B16-F10 cells implanted in C57BL/6 mouse assessed as tumor growth inhibition at 25 mg/kg, ip qd for 6 days and measured once a day for 7 days relative to control; type: functional; settings: B16-F10, 168 h, time 7 day, read-out: TGI
# [8] = Volume of distribution at steady state in CD-1 mouse at 5 mg/kg, iv measured upto 24 hrs by UPLC analysis; type: ADME, organism-based; settings: in vivo, read-out: Vdss
# RKO [9] = test: Cytotoxicity against human RKO cells over expressing human PD-L1 at 50 uM; type: toxicity, cell-based
# CT26 [10] = test: Antitumor activity against mouse CT26 cells xenografted Balb/c mouse assessed as granzyme B+ CD8+ T cell count at 25 mg/kg, ip qd administered for 10 days measured every 2 days for 12 days (reference value: 4.31 +/- 2.35%); type: functional; settings: time 12 day
# [11] = Half life in CD-1 mouse at 10 mg/kg, ig measured upto 24 hrs by UPLC analysis; type: ADME, organism-based; settings: in vivo, po
# CT26 [12] = test: Downregulation of mitogen-activated protein kinase 15 in mouse CT26 cells implanted in Balb/c mouse tumor by LC/MS analysis; type: functional, cell-based
# CT26 [13] = test: Downregulation of BET1 homologue in Balb/c mouse tumor implanted with mouse CT26 cells by LC/MS analysis; type: functional, cell-based
# [14] = Tmax in CD-1 mouse at 10 mg/kg, ig measured upto 24 hrs by UPLC analysis; type: ADME, organism-based; settings: in vivo, po
# CT26 [15] = test: Downregulation of STING ER exit protein in Balb/c mouse tumor implanted with mouse CT26 cells by LC/MS analysis; type: functional, cell-based
# CT26 [16] = test: Antitumor activity against mouse CT26 cells implanted in Balb/c mouse assessed as tumor growth inhibition at 25 mg/kg, ip qd administered for 10 days measured every 2 days for 12 days relative to control; type: functional; settings: CT26, 288 h, time 12 day, read-out: TGI
# [17] = target: T1, Programmed cell death protein 1/Programmed cell death 1 ligand 1 (Homo sapiens, UniProt Q9NZQ7); test: Inhibition of human PD-1/PD-L1 interaction overexpressed in human HEK293T cells by flow cytometry analysis; type: cell-based
# CT26 [18] = test: Downregulation of mouse PD-L1 expressed in CT26 cells incubated for 48 hrs; type: functional, cell-based
# [19] = Toxicity in C57BL/6 mouse implanted with mouse B16-F10 cells assessed as weight loss at 25 mg/kg, ip qd administered for 6 days measured after 7 days relative to control; type: organism-based; settings: in vivo, 168 h, time 7 day
# [20] = Observed MRT infinity in CD-1 mouse at 10 mg/kg, ig measured upto 24 hrs by UPLC analysis; type: ADME, organism-based; settings: in vivo, po
# [21] = target: T1, Programmed cell death protein 1/Programmed cell death 1 ligand 1; test: Inhibition of PD-1/PD-L1 (unknown origin) interaction incubated for 15 mins by HTRF assay; type: protein-complex assay
# RKO [22] = test: Downregulation of human PD-L1 expressed in RKO cells incubated for 48 hrs; type: functional, cell-based
# Jurkat = test: Cytotoxicity against human Jurkat T cells assessed as cell growth inhibition upto 30 uM incubated for 48 hrs by MTT assay; type: toxicity, cell-based
# [23] = Cmax in CD-1 mouse at 10 mg/kg, ig measured upto 24 hrs by UPLC analysis; type: ADME, organism-based; design: dose 10 mg/kg, time < 24 hrs, route ig; settings: in vivo, po
# [24] = Toxicity in C57BL/6 mouse implanted with mouse B16-F10 cells assessed as weight loss at 100 mg/kg, po qd administered for 6 days measured after 7 days relative to control; type: organism-based; settings: in vivo, 168 h, time 7 day
# [25] = Toxicity in C57BL/6 mouse implanted with mouse B16-F10 cells assessed as weight loss at 5 mg/kg, it qd administered for 6 days measured after 7 days relative to control; type: organism-based; settings: in vivo, other, 168 h, time 7 day
# [26] = Partition coefficient, logD of compound in 1-octanol and phosphate buffer at pH 7.4 incubated for 1 hr under shaking condition by HPLC analysis; type: physicochemical; settings: 1-octanol/phosphate buffer, pH 7.4
# [27] = Observed clearance in CD-1 mouse at 5 mg/kg, iv measured upto 24 hrs by UPLC analysis; type: ADME, organism-based; settings: in vivo
# [28] = AUClast in CD-1 mouse at 10 mg/kg, ig measured upto 24 hrs by UPLC analysis; type: ADME, organism-based; design: dose 10 mg/kg, time < 24 hrs, route ig; settings: in vivo, po
# [29] = AUClast in CD-1 mouse at 5 mg/kg, iv measured upto 24 hrs by UPLC analysis; type: ADME, organism-based; design: dose 5 mg/kg, time < 24 hrs, route iv; settings: in vivo
# [30] = Observed MRT infinity in CD-1 mouse at 5 mg/kg, iv measured upto 24 hrs by UPLC analysis; type: ADME, organism-based; settings: in vivo
# [31] = target: Programmed cell death 1 ligand 1 (Homo sapiens) (UniProt Q9NZQ7); test: Induction of human PD-L1 degradation expressed in MC38 cells at 1 to 10 uM cocultured for 72 hrs by Western blotting analysis; type: cell-based; settings: dose 1-10 µM
# [32] = target: Programmed cell death 1 ligand 1 (Homo sapiens) (UniProt Q9NZQ7); test: Inhibition of human PD-L1 overexpressed in RKO cells assessed as reduction in membrane activity cocultured for 48 hrs by flow cytometry analysis; type: cell-based
# [33] = Observed AUC infinity in CD-1 mouse at 5 mg/kg, iv measured upto 24 hrs by UPLC analysis; type: ADME, organism-based; design: dose 5 mg/kg, time < 24 hrs, route iv; settings: CD-1, mouse, in vivo
# B16-F10 [34] = test: Antitumor activity against mouse B16-F10 cells implanted in C57BL/6 mouse assessed as tumor growth inhibition at 5 mg/kg, it qd for 6 days and measured once a day for 7 days relative to control; type: functional; settings: B16-F10, 168 h, time 7 day, read-out: TGI
# [35] = Toxicity in BALB/c mouse implanted with mouse CT26 cells assessed as weight loss at 25 mg/kg, ip qd administered for 10 days measured every 2 days for 12 days relative to control; type: organism-based; settings: in vivo, 288 h, time 12 day
# [36] = target: T1, Programmed cell death protein 1/Programmed cell death 1 ligand 1; test: Inhibition of PD-1/His-tagged PD-L1 (unknown origin) protein-protein interaction incubated for 90 mins by AlphaLISA; type: protein-complex assay
# T1 sequence (Q15116 whole entry): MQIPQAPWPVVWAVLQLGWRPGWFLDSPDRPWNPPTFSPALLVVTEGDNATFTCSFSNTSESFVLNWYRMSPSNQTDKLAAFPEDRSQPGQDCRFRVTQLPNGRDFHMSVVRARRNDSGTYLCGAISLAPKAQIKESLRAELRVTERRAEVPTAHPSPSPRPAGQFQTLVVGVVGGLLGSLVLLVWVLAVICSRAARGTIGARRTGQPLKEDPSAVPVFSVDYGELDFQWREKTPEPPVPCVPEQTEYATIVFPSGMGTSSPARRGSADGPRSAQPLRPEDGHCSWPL
# T1 sequence (Q9NZQ7 whole entry): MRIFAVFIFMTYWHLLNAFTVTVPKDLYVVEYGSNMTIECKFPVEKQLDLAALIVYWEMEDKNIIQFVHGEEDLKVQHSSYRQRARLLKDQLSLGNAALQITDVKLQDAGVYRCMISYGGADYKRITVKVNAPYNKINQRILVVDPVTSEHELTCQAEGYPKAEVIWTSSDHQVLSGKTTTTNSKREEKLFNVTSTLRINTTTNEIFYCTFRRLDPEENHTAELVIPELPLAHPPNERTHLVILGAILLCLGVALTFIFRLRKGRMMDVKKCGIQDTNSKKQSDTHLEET
# Programmed cell death 1 ligand 1 (Homo sapiens), sequence (Q9NZQ7 whole entry): as above
smiles,measurement,setting,value
COc1nc(OCc2cccc(-c3ccccc3)c2C)ccc1CNCCO[C@@H]1O[C@H](CO)[C@@H](O)[C@H](O)[C@H]1NC(C)=O,half-life,[1],6.36 h
same,inhibition in vivo at 100 mg/kg,B16-F10 [2],41.1%
same,Activity,CT26 [3],11.47%
same,Activity,CT26 [4],20.53%
same,Activity,CT26 [5],Active
same,fold change (FC),[6],2.57
same,inhibition in vivo at 25 mg/kg,B16-F10 [7],41.1%
same,Vd,[8],6.88 L/kg
same,Activity,RKO [9],Non-Toxic
same,Activity,CT26 [10],5.06%
same,half-life,[11],7.02 h
same,Activity,CT26 [12],Active
same,Activity,CT26 [13],Active
same,Tmax,[14],0.5 h
same,Activity,CT26 [15],Active
same,inhibition in vivo at 25 mg/kg,CT26 [16],77.3%
same,IC50,[17],49.4 nM
same,Activity,CT26 [18],Active
same,Activity,[19],Non-Toxic
same,MRT inf,[20],10.2 h
same,IC50,[21],29.2 nM
same,Activity,RKO [22],Active
same,Activity,Jurkat,Non-Toxic
same,Cmax,[23],31.7 ng/mL
same,Activity,[24],Non-Toxic
same,Activity,[25],Non-Toxic
same,logD at 1 h,[26],2.09
same,clearance,[27],38.6 mL/min/kg
same,AUC(0-t) at 24 h,[28],337 ng·h/mL
same,AUC(0-t) at 24 h,[29],2160 ng·h/mL
same,MRT inf,[30],3.58 h
same,Activity,[31],Active
same,inhibition,[32],Active
same,AUC(0-inf),[33],2230 ng·h/mL
same,inhibition in vivo at 5 mg/kg,B16-F10 [34],41.1%
same,Activity,[35],Non-Toxic
Cc1c(COc2cc(OCc3cncc(C#N)c3)c(CN(CCCN(C)C)CCS(=O)(=O)O)cc2Cl)cccc1-c1ccc2c(c1)OCCO2,IC50,[36],23.5 nM
